B1: full-length BP0403 (BP0403FL) (natural protein, Bordetella pertussis, UniProt Q7VSK8 20-503, looked up)
chain: SRAPDTEILQRDVGQTLAATYGPDLFDIVALRRMGSATDSTAPPGQTRRVVYYDVVLGLKKDLTLGAWDQPGAAALVSLLGAGPRSISGVKSSGNAAGDQIVAHASAIYQRDAEQWVHVAPASFTATEAPSLDTGAPPPVTRQLLQTLEQITRSVPYSASSTAQHVVQQELERSVARINGRLARLQKGYPLATGPDKGEYLAFGQALAAIGRNEQVRVIPLITGGSADNMAMLRSGAAVAALSQADIAQLAYEGKGPFESQGPFSGLRALGSLYPELVHIVVRQGDGIATVGALRGKKIALGPSGSAVRTTLETVLAAHGLQPGRDYAVIDTPAAAALPQLSEGRVDAVAQVIGTPAAPLRAALTQARLALLPLDRAAIDKLVQADPTLMALDIPANTYPSQAAAIPTVGMAALLVTTADLTRDEAAHMVDVVYRAGQDLLAAGSAQGAQVSAANAGRGLSIPLHDGAVEAFEKLGAPPLPEGR
notes: Codon optimised synthetic gene; also called BP0403 wildtype; source: E. coli BL21 (DE3), pET151, purified (Ni-NTA, SEC)

What was measured:
[1] = molecular target: T1, BP0403 (Bordetella pertussis, UniProt Q7VSK8, Y219A); test: intrinsic tyrosine fluorescence titration; type: binding
T1 sequence (Q7VSK8 208-503 Y219A): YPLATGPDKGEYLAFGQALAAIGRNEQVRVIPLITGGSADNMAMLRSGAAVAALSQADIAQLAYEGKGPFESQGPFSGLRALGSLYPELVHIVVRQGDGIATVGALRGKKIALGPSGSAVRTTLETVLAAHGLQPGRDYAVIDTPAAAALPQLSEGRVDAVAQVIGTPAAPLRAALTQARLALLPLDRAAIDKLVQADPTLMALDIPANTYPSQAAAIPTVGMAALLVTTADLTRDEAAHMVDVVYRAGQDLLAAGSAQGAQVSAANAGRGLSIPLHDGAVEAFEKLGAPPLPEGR

[2] = molecular target: T2, BP0403 (Bordetella pertussis, UniProt Q7VSK8); test: intrinsic tyrosine fluorescence titration (n = […]); DSF shift on full-length protein and SBP domain; type: binding
T2 construct: BP0403SBP (residues 208–503), isolated C-terminal SBP domain; full-length BP0403FL (without signal peptide) also shifted in DSF

[3] = molecular target: T3, BP0403 (Bordetella pertussis, UniProt Q7VSK8, Q263A); test: intrinsic tyrosine fluorescence titration; type: binding
T3 sequence (Q7VSK8 208-503 Q263A): T1 sequence (Q7VSK8 208-503 Y219A)

[4] = molecular target: the molecule itself; test: SEC; Superdex 200 Increase 10/300 GL, 0.5 ml/min, SEC buffer (50 mM Tris-HCl pH 8, 100 mM NaCl, 5% glycerol); IMAC eluate incubated 20 min at room temperature with 5 mM EDTA and 100 mM glycerol before loading; elution volume compared with a calibration curve of molecular weight standards

Molecule	Kd [1] [µM]	Kd [2] [µM]	Kd [3] [µM]	stoichiometry N [4]
N[C@@H](CCC(=O)O)C(=O)O [L-glutamate]	31 ± 6	0.18 ± 0.032	45 ± 3	
B1				2

Source: paper PMC12344293, “A new class of binding-protein dependent solute transporter exemplified by the TAXI-GltS system from Bordetella pertussis” (Communications Biology, 2025)
